Test results taken from ChEMBL document CHEMBL4507291 (2021).

Key:
[1] = target: cAMP-dependent protein kinase catalytic subunit beta (Homo sapiens) (UniProt P22694)
[2] = target: NUAK family SNF1-like kinase 2 (Homo sapiens) (UniProt Q9H093)
[3] = system: Tyrosine-protein kinase ABL1 (Homo sapiens), P00519 [F317I]
[4] = target: T1, Ephrin type-A receptor 1 (Homo sapiens) (UniProt P21709)
T1 sequence (whole entry): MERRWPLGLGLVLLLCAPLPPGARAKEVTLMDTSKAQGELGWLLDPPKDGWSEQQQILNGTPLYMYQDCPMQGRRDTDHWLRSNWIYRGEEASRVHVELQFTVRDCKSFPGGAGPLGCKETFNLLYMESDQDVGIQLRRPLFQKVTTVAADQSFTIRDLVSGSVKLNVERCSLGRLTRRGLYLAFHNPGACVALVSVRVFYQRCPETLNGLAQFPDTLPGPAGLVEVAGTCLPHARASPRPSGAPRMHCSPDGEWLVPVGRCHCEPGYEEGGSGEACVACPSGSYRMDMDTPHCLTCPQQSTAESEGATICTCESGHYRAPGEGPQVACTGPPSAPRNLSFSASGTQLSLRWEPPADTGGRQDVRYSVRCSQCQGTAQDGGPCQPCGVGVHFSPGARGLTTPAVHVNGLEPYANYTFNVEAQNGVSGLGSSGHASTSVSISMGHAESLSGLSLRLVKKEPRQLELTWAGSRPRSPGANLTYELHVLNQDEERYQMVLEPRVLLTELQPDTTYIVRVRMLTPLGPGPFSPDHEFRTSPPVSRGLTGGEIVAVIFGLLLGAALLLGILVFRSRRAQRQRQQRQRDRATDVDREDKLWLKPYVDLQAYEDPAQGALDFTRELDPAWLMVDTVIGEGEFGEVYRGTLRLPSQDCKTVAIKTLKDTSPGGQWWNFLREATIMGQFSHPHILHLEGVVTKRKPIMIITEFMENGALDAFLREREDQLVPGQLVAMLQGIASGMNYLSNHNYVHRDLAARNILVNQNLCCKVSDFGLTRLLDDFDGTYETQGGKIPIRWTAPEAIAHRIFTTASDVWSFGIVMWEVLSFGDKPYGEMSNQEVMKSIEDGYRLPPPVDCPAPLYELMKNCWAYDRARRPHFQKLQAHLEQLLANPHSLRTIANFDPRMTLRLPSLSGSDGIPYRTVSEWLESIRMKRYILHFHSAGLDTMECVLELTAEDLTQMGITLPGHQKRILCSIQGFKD

[5] = target: T2, cAMP-dependent protein kinase catalytic subunit PRKX (Homo sapiens) (UniProt P51817)
T2 sequence (whole entry): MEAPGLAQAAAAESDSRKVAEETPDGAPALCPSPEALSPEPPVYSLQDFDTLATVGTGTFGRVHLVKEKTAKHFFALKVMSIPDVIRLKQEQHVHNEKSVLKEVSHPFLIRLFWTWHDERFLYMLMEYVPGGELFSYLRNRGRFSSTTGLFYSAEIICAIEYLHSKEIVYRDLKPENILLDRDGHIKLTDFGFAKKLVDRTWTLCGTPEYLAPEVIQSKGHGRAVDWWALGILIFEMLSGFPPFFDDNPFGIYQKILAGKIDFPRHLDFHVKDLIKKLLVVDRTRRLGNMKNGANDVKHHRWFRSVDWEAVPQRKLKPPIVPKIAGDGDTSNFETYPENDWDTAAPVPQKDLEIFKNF

[6] = system: Receptor-type tyrosine-protein kinase FLT3 (Homo sapiens), P36888 [D835H]
[7] = target: Serine/threonine-protein kinase Nek4 (Homo sapiens) (UniProt P51957)
[8] = target: Serine/threonine-protein kinase BRSK2 (Homo sapiens) (UniProt Q8IWQ3)
[9] = target: Tyrosine-protein kinase Srms (Homo sapiens) (UniProt Q9H3Y6)
[10] = target: Serine/threonine-protein kinase TAO1 (Homo sapiens) (UniProt Q7L7X3)
[11] = target: Tyrosine-protein kinase HCK (Homo sapiens) (UniProt P08631)
[12] = target: Myosin-IIIa (Homo sapiens) (UniProt Q8NEV4)
[13] = target: Non-receptor tyrosine-protein kinase TYK2 (Homo sapiens) (UniProt P29597)
[14] = target: Tyrosine-protein kinase ABL2 (Homo sapiens) (UniProt P42684)
[15] = target: Death-associated protein kinase 2 (Homo sapiens) (UniProt Q9UIK4)
[16] = target: T3, TGF-beta receptor type-1 (Homo sapiens) (UniProt P36897)
T3 sequence (whole entry): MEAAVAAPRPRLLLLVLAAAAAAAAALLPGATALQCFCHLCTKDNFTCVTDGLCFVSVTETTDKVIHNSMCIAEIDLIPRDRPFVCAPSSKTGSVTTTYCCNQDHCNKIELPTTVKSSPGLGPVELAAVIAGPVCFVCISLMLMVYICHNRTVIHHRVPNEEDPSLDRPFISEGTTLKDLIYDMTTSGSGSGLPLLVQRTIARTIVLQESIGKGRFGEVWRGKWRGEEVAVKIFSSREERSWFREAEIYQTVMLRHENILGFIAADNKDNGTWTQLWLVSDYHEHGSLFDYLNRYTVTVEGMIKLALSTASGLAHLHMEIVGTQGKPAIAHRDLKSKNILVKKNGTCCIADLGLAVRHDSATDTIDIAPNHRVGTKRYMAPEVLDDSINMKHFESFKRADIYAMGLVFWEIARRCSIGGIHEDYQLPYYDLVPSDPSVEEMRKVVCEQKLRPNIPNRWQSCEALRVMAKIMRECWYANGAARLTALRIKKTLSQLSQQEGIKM

[17] = Compound concentration 1000.0 nM
[18] = Compound concentration 100.0 nM

Measured: residual activity

Serine/threonine-protein kinase BRSK2 (Homo sapiens), sequence (Q8IWQ3 whole entry): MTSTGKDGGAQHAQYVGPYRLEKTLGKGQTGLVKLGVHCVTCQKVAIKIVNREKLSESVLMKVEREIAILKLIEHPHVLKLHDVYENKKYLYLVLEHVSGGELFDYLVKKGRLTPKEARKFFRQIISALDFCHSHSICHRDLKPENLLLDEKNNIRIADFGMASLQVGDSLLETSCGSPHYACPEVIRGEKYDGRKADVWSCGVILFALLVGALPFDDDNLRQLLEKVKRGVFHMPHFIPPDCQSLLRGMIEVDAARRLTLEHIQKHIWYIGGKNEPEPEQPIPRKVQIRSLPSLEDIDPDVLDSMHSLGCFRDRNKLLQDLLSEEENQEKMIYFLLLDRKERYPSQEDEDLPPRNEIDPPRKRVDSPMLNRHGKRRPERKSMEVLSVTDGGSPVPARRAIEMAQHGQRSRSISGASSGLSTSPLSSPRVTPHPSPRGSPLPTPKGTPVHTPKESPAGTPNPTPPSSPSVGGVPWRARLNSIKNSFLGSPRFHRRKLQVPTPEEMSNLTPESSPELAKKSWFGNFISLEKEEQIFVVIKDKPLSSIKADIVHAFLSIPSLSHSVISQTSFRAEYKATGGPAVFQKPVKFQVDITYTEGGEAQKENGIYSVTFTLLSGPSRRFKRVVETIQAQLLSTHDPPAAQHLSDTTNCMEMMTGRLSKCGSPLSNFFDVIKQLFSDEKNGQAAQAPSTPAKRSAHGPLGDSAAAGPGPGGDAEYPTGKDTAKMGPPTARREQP
Serine/threonine-protein kinase TAO1 (Homo sapiens), sequence (Q7L7X3 whole entry): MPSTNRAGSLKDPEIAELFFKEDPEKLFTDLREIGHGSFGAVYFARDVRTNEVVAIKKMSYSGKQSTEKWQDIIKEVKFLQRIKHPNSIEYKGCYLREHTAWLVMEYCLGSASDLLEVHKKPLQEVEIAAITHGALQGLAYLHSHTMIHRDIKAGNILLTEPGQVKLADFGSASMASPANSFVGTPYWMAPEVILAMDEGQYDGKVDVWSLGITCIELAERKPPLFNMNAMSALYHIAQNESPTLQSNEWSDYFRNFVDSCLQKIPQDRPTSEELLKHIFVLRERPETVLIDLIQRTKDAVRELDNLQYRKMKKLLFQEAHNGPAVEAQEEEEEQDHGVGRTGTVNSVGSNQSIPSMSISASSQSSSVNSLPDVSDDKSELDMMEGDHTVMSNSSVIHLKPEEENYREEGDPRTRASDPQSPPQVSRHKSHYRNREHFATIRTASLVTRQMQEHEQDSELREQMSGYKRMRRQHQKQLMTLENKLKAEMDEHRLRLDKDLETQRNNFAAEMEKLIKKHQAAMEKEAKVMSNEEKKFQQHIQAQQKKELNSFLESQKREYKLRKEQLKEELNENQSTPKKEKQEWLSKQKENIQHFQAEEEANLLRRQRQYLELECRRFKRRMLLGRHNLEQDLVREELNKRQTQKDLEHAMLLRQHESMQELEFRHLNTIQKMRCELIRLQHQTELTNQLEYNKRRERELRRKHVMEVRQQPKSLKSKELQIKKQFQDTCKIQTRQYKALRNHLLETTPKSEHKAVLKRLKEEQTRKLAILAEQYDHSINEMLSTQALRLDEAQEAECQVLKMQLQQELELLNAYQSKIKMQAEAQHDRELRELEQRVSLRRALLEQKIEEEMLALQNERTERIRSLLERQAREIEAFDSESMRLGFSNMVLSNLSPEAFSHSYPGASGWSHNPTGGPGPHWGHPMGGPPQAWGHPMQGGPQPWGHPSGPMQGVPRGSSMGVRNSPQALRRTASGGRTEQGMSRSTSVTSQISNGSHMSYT
Tyrosine-protein kinase ABL1 (Homo sapiens), P00519 [F317I], sequence (P00519 whole entry F317I): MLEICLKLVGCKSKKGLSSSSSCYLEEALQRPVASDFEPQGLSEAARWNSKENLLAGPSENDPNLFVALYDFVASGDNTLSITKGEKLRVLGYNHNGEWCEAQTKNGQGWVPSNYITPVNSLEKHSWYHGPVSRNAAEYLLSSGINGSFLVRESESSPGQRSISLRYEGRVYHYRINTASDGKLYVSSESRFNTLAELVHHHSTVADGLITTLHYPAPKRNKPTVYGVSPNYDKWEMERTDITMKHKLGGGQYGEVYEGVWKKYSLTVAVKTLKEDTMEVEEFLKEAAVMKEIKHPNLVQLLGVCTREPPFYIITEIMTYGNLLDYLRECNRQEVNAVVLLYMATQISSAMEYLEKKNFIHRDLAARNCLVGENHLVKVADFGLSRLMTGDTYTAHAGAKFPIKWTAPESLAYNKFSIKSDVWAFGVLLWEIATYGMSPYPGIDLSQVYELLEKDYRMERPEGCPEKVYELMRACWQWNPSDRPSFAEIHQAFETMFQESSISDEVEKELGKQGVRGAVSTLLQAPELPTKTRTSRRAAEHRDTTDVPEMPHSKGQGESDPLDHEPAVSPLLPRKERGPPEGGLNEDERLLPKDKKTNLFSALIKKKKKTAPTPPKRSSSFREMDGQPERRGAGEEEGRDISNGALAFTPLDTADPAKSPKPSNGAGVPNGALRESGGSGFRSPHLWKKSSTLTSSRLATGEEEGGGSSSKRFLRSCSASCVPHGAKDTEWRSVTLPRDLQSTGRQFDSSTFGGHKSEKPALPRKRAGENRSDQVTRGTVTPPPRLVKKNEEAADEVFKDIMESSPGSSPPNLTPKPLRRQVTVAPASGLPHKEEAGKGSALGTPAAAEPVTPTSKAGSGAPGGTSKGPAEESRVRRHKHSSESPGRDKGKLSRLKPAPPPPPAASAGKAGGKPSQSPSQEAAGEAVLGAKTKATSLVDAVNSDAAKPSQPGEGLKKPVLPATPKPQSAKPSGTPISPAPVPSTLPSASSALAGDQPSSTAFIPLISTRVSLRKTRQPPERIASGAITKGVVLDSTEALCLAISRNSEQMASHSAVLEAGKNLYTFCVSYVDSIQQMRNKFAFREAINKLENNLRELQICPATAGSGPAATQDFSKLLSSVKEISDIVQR
Death-associated protein kinase 2 (Homo sapiens), sequence (Q9UIK4 whole entry, looked up): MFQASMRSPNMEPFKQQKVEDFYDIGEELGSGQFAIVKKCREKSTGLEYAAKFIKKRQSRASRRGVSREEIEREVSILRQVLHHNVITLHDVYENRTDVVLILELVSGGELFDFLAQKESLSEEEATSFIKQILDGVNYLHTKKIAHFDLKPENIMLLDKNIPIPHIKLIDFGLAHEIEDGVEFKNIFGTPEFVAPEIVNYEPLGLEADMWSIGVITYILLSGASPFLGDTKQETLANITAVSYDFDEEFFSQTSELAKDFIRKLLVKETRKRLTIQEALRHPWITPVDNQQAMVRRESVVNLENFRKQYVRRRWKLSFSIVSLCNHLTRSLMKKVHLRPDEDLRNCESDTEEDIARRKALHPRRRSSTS
Non-receptor tyrosine-protein kinase TYK2 (Homo sapiens), sequence (P29597 whole entry): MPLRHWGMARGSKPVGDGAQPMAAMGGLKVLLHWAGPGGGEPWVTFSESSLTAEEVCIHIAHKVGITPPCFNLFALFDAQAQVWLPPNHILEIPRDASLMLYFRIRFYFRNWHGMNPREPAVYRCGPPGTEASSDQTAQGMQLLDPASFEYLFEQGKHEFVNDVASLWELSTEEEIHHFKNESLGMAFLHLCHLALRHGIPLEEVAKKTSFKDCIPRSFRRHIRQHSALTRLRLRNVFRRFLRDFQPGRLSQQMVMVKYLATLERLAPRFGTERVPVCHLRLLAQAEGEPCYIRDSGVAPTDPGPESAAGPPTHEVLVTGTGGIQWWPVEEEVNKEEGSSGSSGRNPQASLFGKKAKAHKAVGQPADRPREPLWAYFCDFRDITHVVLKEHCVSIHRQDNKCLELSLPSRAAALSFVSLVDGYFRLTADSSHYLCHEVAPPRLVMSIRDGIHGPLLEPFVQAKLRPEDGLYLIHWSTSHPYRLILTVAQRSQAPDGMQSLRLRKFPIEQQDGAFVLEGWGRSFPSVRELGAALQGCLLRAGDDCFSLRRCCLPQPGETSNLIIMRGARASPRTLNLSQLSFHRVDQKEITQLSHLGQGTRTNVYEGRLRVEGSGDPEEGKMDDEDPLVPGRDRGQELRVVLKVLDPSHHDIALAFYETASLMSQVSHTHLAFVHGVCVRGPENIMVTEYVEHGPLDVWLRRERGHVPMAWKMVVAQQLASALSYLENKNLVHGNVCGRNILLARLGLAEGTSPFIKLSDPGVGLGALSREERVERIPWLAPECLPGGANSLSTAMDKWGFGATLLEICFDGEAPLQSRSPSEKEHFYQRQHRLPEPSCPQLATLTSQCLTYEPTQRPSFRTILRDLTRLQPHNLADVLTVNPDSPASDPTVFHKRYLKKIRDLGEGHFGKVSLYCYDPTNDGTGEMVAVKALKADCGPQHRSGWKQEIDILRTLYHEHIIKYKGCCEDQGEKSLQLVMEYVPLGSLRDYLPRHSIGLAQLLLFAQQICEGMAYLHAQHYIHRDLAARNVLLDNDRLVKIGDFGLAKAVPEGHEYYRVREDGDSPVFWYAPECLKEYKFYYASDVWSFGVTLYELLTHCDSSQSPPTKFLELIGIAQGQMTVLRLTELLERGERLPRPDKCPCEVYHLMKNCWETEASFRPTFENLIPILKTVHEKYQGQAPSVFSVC
Tyrosine-protein kinase HCK (Homo sapiens), sequence (P08631 2-526 limits assumed): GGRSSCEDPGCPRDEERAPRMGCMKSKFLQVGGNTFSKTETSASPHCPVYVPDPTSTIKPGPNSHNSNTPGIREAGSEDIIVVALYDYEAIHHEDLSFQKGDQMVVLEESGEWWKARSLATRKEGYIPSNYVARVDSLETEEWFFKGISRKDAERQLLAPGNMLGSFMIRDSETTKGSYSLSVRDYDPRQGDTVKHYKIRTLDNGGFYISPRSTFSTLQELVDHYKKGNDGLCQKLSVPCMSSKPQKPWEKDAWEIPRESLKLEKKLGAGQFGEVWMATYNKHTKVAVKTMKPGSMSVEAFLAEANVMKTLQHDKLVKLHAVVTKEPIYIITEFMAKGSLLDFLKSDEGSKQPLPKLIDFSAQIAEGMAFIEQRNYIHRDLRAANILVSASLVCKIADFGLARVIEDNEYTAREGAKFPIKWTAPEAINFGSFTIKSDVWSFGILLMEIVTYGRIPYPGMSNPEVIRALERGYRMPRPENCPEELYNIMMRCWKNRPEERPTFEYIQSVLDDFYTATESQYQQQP

C[C@@H]1CN(c2cc(-c3nn(C)c4ccc(OC5(C)CC5)cc34)ncn2)C[C@H](C)O1 [MLi-2-NC]
inactive: [1]; [17] 100% | [2]; [17] 68% | [3]; [17] 62% | [4]; [17] 100% | [5]; [17] 92% | [6]; [17] 84% | [7]; [17] 60% | [8]; [17] 100% | [9]; [17] 83% | [10]; [17] 82% | [11]; [17] 96% | [12]; [17] 100% | [13]; [17] 82% | [14]; [17] 100% | [15]; [17] 89% | [16]; [17] 89%

C[C@@H]1CN(c2cc(-c3n[nH]c4ccc(OC5(C)CC5)cc34)ncn2)C[C@H](C)O1 [MLi-2]
inactive: [1]; [18] 91% | [2]; [18] 79% | [3]; [18] 74% | [4]; [18] 76% | [5]; [18] 86% | [6]; [18] 100% | [7]; [18] 84% | [8]; [18] 100% | [9]; [18] 59% | [10]; [18] 86% | [11]; [18] 84% | [12]; [18] 100% | [13]; [18] 76% | [14]; [18] 73% | [15]; [18] 85% | [16]; [18] 100%
